Measured values published in patent US11999676B2, “Vesicular monoamine transporter-2 ligands and their use in the treatment of psychostimulant abuse” (priority 2016, dated 2024).
Read-outs that look alike come from different tables or passages of the source.

Columns and labels:
[1] = molecular target: T1, VMAT2 (Rattus norvegicus (Rat), UniProt Q01827); settings: rat brain synaptic vesicles; read-out: [3H]DTBZ binding (Ki) VMAT2
[2] = molecular target: T1, VMAT2; assay: [3H]Dopamine ([3H]DA) uptake assay, vesicular preparation; format: biochemical
[3] = molecular target: hERG channel (Homo sapiens (Human), UniProt Q12809); assay: [3H]Dofetilide binding assay, HEK-293 cell membrane preparation; settings: [3H]dofetilide, HEK-293 cell membranes; read-out: hERG Binding: Mean Ki ± Standard Deviation
Protocol: [^3H]Dofetilide binding assays were conducted using commercially available HEK-293 cell membranes which stably express the hERG channel. Membranes were suspended in assay buffer (50 mM Tris, 10 mM KCl, 1 mM MgCl2, pH 7.4) prior to the experiment. […] Aliquots of the HEK-293 cell membrane suspension which contained 5 μg membrane protein were added to tubes containing assay buffer, 5 nM [^3H]dofetilide and a range of concentrations of analog (10 nM-100 μM). Nonspecific binding was determined in the presence of amitriptyline (1 mM). Samples were incubated for 1 hr. at 24° C., followed by rapid filtration. […] The affinity for the [^3H]dofetilide binding site on the hERG channel expressed in the HEK-293 cellular membrane was determined from the analog concentration response curves.

[4] = Microsomal stability assay, human liver microsomes; settings: for CLint scaled at 0.08 µM / half-life at 0.08 µM: both, human, pooled liver microsomes; for CLint scaled at 0.08 µM: pH 7.4, Microsomal stability assays: Clearance; for half-life at 0.08 µM: pH 7.4, Microsomal stability assays: Half-life
Protocol: (§1) Each plate holds triplicate samples of two controls (0.4 mM) and up to 14 compounds (0.08 mM) in rat and human liver microsomes. Aliquots of each well of the plate (175 μl of each well) were transferred from the master plate into 5 assay plates. For 0-hr time point, pre-cooled (4° C.) internal standard (437.5 μL, 2 μM caffeine in methanol) was added to the first plate before the reaction starts. NADPH regenerating system solution A (6.05 ml, Fisher Scientific, #NC9255727) was combined with NADPH regenerating system solution B (1.21 ml, Fisher Scientific, #NC9016235) in potassium phosphate buffer (15.8 ml, 0.1 M, pH 7.4, 37° C.). The resulting NADPH solution (43.8 μl) was added to each well of all the 96-well assay plates and mixed with pipette briefly making the final protein and compound concentrations respectively: 0.5 mg/ml, 0.08 μM (0.4 μM for controls). Plates were sealed, and all plates except the 0-hr plate were incubated at 37° C., shaken at a speed of 60 rpm. A single assay plate was tested at each time point: 0.5 hr, 1 hr, 2 hr, and 4 hr. At each time point, 437.5 μL of pre-cooled internal standard was added each well of the plate to quench the reaction. […] 120 μl supernatant was transferred to a 96-well plate, centrifuged again and analyzed by UPLC-MS (Waters Inc., Milford, MA). The compounds and internal standard were detected by selected ion recording (SIR).
(§2) The amount of material was measured as a ratio of peak area to the internal standard and graphed. Using the slope from the initial linear portion of this curve, the degradation rate constant is calculated using equation [1].

[5] = Microsomal stability assay, rat liver microsomes; settings: for half-life at 0.08 µM / CLint scaled at 0.08 µM: female, Sprague-Dawley, rat, liver microsomes; for half-life at 0.08 µM: pH 7.4, Microsomal stability assays: Half-life; for CLint scaled at 0.08 µM: pH 7.4, Microsomal stability assays: Clearance
Protocol: as §1, §2

[6] = rat striatal synaptic vesicles, read-out: [3H]DA uptake (Ki) VMAT2
[7] = [3H]DA uptake, rat, read-out: VMAT2 (rat) Inhibition: Mean Ki ± Standard Deviation

hERG channel, sequence (Q12809 whole entry): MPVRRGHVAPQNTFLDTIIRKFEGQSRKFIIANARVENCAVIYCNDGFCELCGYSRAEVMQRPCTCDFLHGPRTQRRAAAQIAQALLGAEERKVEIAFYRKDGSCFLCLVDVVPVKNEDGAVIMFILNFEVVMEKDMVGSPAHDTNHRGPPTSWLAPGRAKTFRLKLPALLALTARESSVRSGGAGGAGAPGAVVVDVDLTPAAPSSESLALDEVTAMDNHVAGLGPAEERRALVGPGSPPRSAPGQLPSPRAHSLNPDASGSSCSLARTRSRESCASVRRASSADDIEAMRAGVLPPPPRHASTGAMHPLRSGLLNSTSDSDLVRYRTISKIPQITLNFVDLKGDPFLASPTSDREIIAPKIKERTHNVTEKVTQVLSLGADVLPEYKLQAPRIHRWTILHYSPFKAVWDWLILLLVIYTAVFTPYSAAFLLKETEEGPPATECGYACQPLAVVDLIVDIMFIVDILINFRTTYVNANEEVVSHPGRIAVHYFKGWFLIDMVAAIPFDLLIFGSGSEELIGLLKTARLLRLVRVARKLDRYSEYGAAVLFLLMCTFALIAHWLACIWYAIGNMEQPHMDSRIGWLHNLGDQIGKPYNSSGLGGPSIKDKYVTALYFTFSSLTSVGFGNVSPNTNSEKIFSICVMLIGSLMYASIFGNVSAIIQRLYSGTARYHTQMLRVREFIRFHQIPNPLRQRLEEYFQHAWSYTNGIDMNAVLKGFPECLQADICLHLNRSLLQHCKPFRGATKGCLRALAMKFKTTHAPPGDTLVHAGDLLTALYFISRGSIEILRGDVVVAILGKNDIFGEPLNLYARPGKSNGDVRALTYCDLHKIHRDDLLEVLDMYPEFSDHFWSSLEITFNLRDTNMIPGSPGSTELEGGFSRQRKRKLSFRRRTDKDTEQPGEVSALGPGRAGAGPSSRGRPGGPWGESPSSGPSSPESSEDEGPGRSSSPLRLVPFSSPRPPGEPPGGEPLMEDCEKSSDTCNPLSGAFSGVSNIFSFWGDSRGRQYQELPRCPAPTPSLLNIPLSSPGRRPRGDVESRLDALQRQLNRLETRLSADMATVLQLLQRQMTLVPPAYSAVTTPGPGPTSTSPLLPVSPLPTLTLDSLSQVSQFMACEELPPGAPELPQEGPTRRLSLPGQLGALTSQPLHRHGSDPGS

Compound | Ki [3] [nM] | Ki [2, 7] [nM] | CLint scaled at 0.08 µM [4] [mL/min/kg] | half-life at 0.08 µM [4] [h] | also measured
CC(Cc1ccccc1)NCCc1ccccc1 (stereo not drawn) [Compound 1] |  |  |  |  | Ki [1]: 7700 ± 1250 nM; Ki [2, 6]: 63 ± 5 nM
CC(Cc1ccccc1)N(C)CCc1ccccc1 (stereo not drawn) [Compound 2] |  |  |  |  | Ki [1]: 7530 ± 2160 nM; Ki [2, 6]: 510 ± 100 nM
CC(Cc1ccc(Br)cc1)NCCc1ccccc1 (stereo not drawn) [Compound 3] |  |  |  |  | Ki [1]: 1230 ± 130 nM; Ki [2, 6]: 33 ± 7 nM
CC(Cc1ccccc1)NCCCc1ccccc1 (stereo not drawn) [Compound 4] |  |  |  |  | Ki [1]: 1130 ± 310 nM; Ki [2, 6]: 7 ± 2 nM
CC(Cc1ccc(F)cc1)NCCCc1ccc(NC=O)cc1 (stereo not drawn) [Compound 70] | 2600 ± 711 | 22.5 ± 4.48 | 23 | 0.9 | 
CC(Cc1ccc(NC=O)cc1)NCCCc1ccccc1 (stereo not drawn) [Compound 77] | 1760 ± 630 | 21 ± 1.1 | 11.2 | 1.9 | 
CC(Cc1ccc(NC=O)cc1)NCCCc1ccc(F)cc1 (stereo not drawn) [Compound 88] | 738 ± 244 | 12.7 ± 2.85 | 13.4 | 1.6 | 
CC(Cc1ccc(NC=O)cc1)NCCCc1ccc(F)cc1 (stereo not drawn) [Compound 89] | 738 ± 244 | 12.7 ± 2.85 |  |  | Microsomal stability assays: Clearance [4]: 14 mL/min/kg; Microsomal stability assays: Half-life [4]: 1.5 h
CC(Cc1ccc(N)cc1)NCCCc1ccccc1 (stereo not drawn) [Compound 105] | 4610 ± 1010 | 26.8 ± 6.49 | 29.6 | 0.7 | 
CC(Cc1ccc(N)cc1)NCCCc1ccc(F)cc1 (stereo not drawn) [Compound 109] | 2590 ± 792 | 19.2 ± 4.43 | 25.2 | 0.8 | 
CC(Cc1ccc(N)cc1)NCCCc1ccc(F)cc1 (stereo not drawn) [Compound 112] | 2500 ± 435 | 16.7 ± 3.34 |  |  | Microsomal stability assays: Clearance [4]: 23.5 mL/min/kg; Microsomal stability assays: Half-life [4]: 0.9 h
CC(Cc1ccc([N+](=O)[O-])cc1)NCCCc1ccccc1 (stereo not drawn) [Compound 115] | 285 ± 78.8 | 19 ± 3.81 | < 5.2 | > 4 | 
CC(Cc1ccc([N+](=O)[O-])cc1)NCCCc1ccc(F)cc1 (stereo not drawn) [Compound 118] | 206 ± 137 | 7.08 ± 1.29 | < 5.2 | > 4 | 
CC(Cc1ccc([N+](=O)[O-])cc1)NCCCc1ccc(F)cc1 (stereo not drawn) [Compound 120] | 130 ± 25.6 | 9.85 ± 1.62 |  |  | Microsomal stability assays: Clearance [4]: <5.20 mL/min/kg; Microsomal stability assays: Half-life [4]: >4 h
CC(Cc1ccc([N+](=O)[O-])cc1)NCCCc1ccc(Br)cc1 (stereo not drawn) [Compound 121] | 80 ± 67.7 | 13.4 ± 4.8 | < 5.2 | > 4 | 
CC(Cc1ccc(F)cc1)NCCCc1ccccc1 (stereo not drawn) [Compound 126] | 2050 ± 773 | 19.3 ± 5.14 | 11.5 | 1.8 | 

Compound | Ki [3] [nM] | Ki [2, 7] [nM] | CLint scaled at 0.08 µM [4] [mL/min/kg] | half-life at 0.08 µM [4] [h] | also measured
CC(Cc1ccc(F)cc1)NCCCc1ccc(Br)cc1 (stereo not drawn) [Compound 146] | 546 ± 199 | 22.1 ± 6.5 | < 5.2 | > 4 | 
CC(Cc1ccc(F)cc1)NCCCc1ccnc2ccccc12 (stereo not drawn) [Compound 162] | 2950 ± 1360 | 30.5 ± 8.59 | 102 | 0.2 | 
CC(Cc1ccc(C(F)(F)F)cc1)NCCCc1ccncc1 (stereo not drawn) [Compound 165] | 1890 ± 639 | 53.2 ± 6.5 | < 5.2 | > 4 | 
CC(Cc1ccc(F)cc1)NCCCc1ccc(-c2ccnn2C)cc1 (stereo not drawn) [Compound 166] | 2200 ± 251 | 46.5 ± 8.97 | 34.3 | 0.6 | 
CC(Cc1ccncc1)NCCCc1ccc(Br)cc1 (stereo not drawn) [Compound 168] | 1780 ± 468 | 41 ± 11.1 | 6 | 3.5 | 
CC(Cc1ccncc1)NCCCc1ccc(F)cc1 (stereo not drawn) [Compound 186] | 3320 ± 1930 | 72.4 ± 29.8 | 4.3 | 4.8 | 
CC(Cc1ccc(F)cc1)NCCCc1ccc(Cl)cc1 (stereo not drawn) [Compound 188] | 467 ± 280 | 22 ± 7.72 | 4.7 | 4.4 | 
CC(Cc1ccc(F)cc1)NCCCc1ccc(F)cc1 (stereo not drawn) [Compound 190] | 789 ± 221 | 8.28 ± 0.736 | 5.4 | 3.9 | 
CC(Cc1ccccc1)NCCCc1ccncc1 (stereo not drawn) [Compound 204] | 8460 ± 4580 | 49.1 ± 3.51 | 5.8 | 3.6 | 
CC(Cc1ccccc1)NCCCc1ccc(I)cc1 (stereo not drawn) [Compound 213] | 642 ± 168 | 22.2 ± 2.21 |  |  | Microsomal stability assays: Clearance [4]: <5.20 mL/min/kg; Microsomal stability assays: Half-life [4]: >4 h
CC(Cc1ccccc1)NCCCc1ccc(I)cc1 (stereo not drawn) [Compound 214] | 3040 ± 1370 | 6.86 ± 1.81 |  |  | Microsomal stability assays: Clearance [4]: 17.6 mL/min/kg; Microsomal stability assays: Half-life [4]: 1.2 h
CC(Cc1ccccc1)NCCCc1ccc(I)cc1 (stereo not drawn) [Compound 215] | 3040 ± 1370 | 6.86 ± 1.81 |  |  | Microsomal stability assays: Clearance [5]: 148 mL/min/kg; half-life at 0.08 µM [5]: 0.3 h
CC(Cc1ccccc1)NCCCc1ccc(S)cc1 (stereo not drawn) [Compound 216] | 4190 ± 1080 | 65.4 ± 23.4 |  |  | CLint scaled at 0.08 µM [5]: 170 mL/min/kg; half-life at 0.08 µM [5]: 0.3 h
CC(Cc1ccccc1)NCCCc1ccc(Br)cc1 (stereo not drawn) [Compound 218] | 421 ± 38.1 | 14.2 ± 2.17 | 9.5 | 2.2 | 
CC(Cc1ccccc1)NCCCc1ccc(N)cc1 (stereo not drawn) [Compound 220] | 5340 ± 5630 | 40.4 ± 4.72 |  |  | CLint scaled at 0.08 µM [5]: 65.3 mL/min/kg; half-life at 0.08 µM [5]: 0.7 h
CC(Cc1ccccc1)NCCCc1ccc([N+](=O)[O-])cc1 (stereo not drawn) [Compound 222] | 96.1 ± 28.3 | 4.97 ± 3.08 |  |  | CLint scaled at 0.08 µM [5]: > 400 mL/min/kg; half-life at 0.08 µM [5]: < 0.1 h
